Experimental data taken from publication PMC11641365, “Evaluation of In Vitro Biological Activity of Flavanone/Chromanone Derivatives: Molecular Analysis of Anticancer Mechanisms in Colorectal Cancer” (International Journal of Molecular Sciences, 2024).
Where two headings read alike, the source gives them in different places.

What was measured:
LoVo = test: Hydrogen peroxide level, H2DCFDA probe; format: cell-based, human; conditions: compound at IC50, 24 h; for Increase in H2O2 levels: vs control
Procedure: Cellular H2O2 levels were assessed using 2′,7′-dichlorodihydrofluorescein diacetate (H2DCFDA, Sigma-Aldrich, St. Louis, MO, USA), a well-established fluorogenic probe for intracellular hydrogen peroxide detection. H2DCFDA readily diffuses across the cell membrane and is subsequently hydrolyzed by intracellular esterases to non-fluorescent H2DCF. Oxidation of H2DCF by ROS generates highly fluorescent 2′,7′-dichlorofluorescein (DCF), which accumulates in the cytosol. […] The fluorescence intensity of DCF is directly proportional to the concentration of ROS within the cell.
Cells were seeded in black 96-well fluorometric microplates at a density of 10 × 10^3 cells/mL. […] Following compound incubation, the medium was removed, and the cell monolayers were washed twice with HBSS (140 mM NaCl, 5 mM KCl, 0.8 mM MgCl2, 1.8 mM CaCl2, 1 mM Na2HPO4, 10 mM HEPES, and 1% glucose). A volume of 50 µL of H2DCFDA solution in HBSS (final concentration 5 μM) was added to each well, and the cells were incubated for 30 min in the dark at 37 °C. After incubation with the H2DCFDA, fluorescence measurements were conducted using a Perkin-Elmer LS-5B spectrofluorometer (MA, USA) at the following excitation and fluorescence emission wavelengths: λex = 498 nm/λem = 522 nm. The fluorescence intensity of control cells was arbitrarily assigned a value of 100%. The results were expressed as percentages of control, calculated by comparing the fluorescence intensity ratio of the test samples to controls (100%). The fluorescence of samples was denoted as Δf in relation to the control.

HCT 116 = test: MTT cell viability assay; format: cell-based; conditions: Homo sapiens, 24 h incubation with compound, mean ± SD of three experiments, read-out: Cytotoxic effect, IC50
Procedure: (§1) The cytotoxic activity of the 3-benzylideneflavanones, 3-benzylidenechromanones derivatives (compounds 1, 2, 3, 4, 5) and 5′-(3-methoxyphenyl)-2-phenyl-4′,5′-dihydro-4H-spiro[chromano-3,3′-pirazol]-4-one (compound 3a) was evaluated using the MTT assay (4,5-dimethylthiazol-2-yl)-2,5-diphenyltetrazoliumbromide), a colorimetric method that quantifies cell viability.
(§2) Cell viability was determined using the metabolic microplate spectrophotometric assay with Methylthiazolyl diphenyltetrazolium bromide (MTT) (Sigma-Aldrich; St. Louis, MO, USA). The MTT method belongs to metabolic tests for determining cell viability and consists of measuring the absorbance of a violet solution of formazan, a product of the reduction of a water-soluble yellow MTT by oxidoreductive enzymes (mainly mitochondrial succinate dehydrogenase) of living cells. The amount of the reaction product (water-insoluble formazan crystals) is proportional to the number of living and metabolically active cells in the sample. In the case of damaged or dead cells, formazan is formed in smaller amounts, or it is not formed.
(§3) The appropriate number of cells for a given cell line (6–8 × 10^3 cells/mL) were seeded onto colorless, sterile 96-well microplates (Nunc, Roskilde, Denmark) in the number appropriate for a given cell line. After 24 h of culture, various concentrations of the studied compounds (10^−7–10^−5 M) freshly prepared in DMSO (final concentration DMS < 0.1%) and diluted with complete culture medium were added and incubated in a CO2 incubator for 24 h. After this time, the medium was removed; the cell monolayer was washed twice with sterile PBS solution; and fresh culture medium was added to the microplate wells. After 48 h of cell culture, the MTT test was performed. A volume of 50 μL of tetrazolium salt solution (final concentration 0.05 mg/mL) was added to each microplate well. The microplate was placed for 3–4 h (depending on the cell line) in a CO2 incubator. After incubation, 100 μL of DMSO was added to the wells of the microplate to dissolve the purple formazan crystals formed in the living cell environment. The absorbance of the formazan solution, after gentle mixing, was read at a wavelength of λ = 580 nm and a reference wavelength of λ = 720 nm (Biotek Power Wave HT, Biotek Instruments, Winooski, VT, USA). The percentage of living cells was calculated by comparing the absorbance value of the tested samples with the absorbance value of the control (cells not treated with compounds). The absorbance of the control was taken as 100%.

HT-29 = test: MTT cell viability assay; format: cell-based, human; conditions: for IC50: HT-29, 24 h incubation with compound, mean ± SD of three experiments, read-out: Cytotoxic effect, IC50; for IC50 difference, HT-29 vs other cell lines: HT-29, difference of IC50 values, read-out: IC50 in HT-29 higher compared to the other cell lines
Procedure: as §1, §2, §3

Caco-2 = test: MTT cell viability assay; format: cell-based, human; conditions: 24 h incubation with compound, mean ± SD of three experiments, read-out: Cytotoxic effect, IC50
Procedure: as §1, §2, §3

[1] = system: human colon cancer cell lines: HCT 116, SW620, LoVo, Caco-2, and HT-29; test: MTT cell viability assay, statements across the panel; format: cell-based; conditions: range over the cancer cell lines, read-out: IC50 range against colon cancer cell lines
Procedure: as §1, with “viability. […] These IC50 values were subsequently used for all experiments investigating the anticancer activity of the flavanone/chromanone derivatives in this study.” for “viability.”
as §2
as §3, with “100%. […] Moreover, cisplatin (Sigma-Aldrich, St. Louis, MO, USA) was used as a reference compound, and identical incubation conditions were used as described above.” for “100%.”

IC50 difference, HT-29 vs other cell lines (HT-29; Homo sapiens) [µM] | IC50 ([1]; Homo sapiens) [µM] | IC50 [1] [µM] | SMILES | Increase in H2O2 levels (LoVo) [%] | IC50 (HCT 116) [µM] | IC50 (HT-29; Homo sapiens, HT-29, 24 h) [µM] | IC50 (Caco-2; Homo sapiens, Caco-2, 24 h) [µM] | IC50 (HT-29) [µM] | IC50 (Caco-2) [µM] | Effect on H2O2 levels (LoVo)
~10 | 8 to 30 | 8 to 20 | O=C1/C(=C/c2ccccc2)COc2ccccc21 [Compound 1] | 10 | 10.1 ± 1.3 | 21.1 ± 1.3 | 10.2 ± 1.8 | – | – | –
– | 8 to 30 | – | COc1cccc(/C=C2/C(=O)c3ccccc3OC2c2ccccc2)c1 (centres unmarked) [Compound 3] | 10 | 18.6 ± 1.4 | ~115 | ~70 | 117 ± 6.1 | 69.9 ± 5.1 | –
~10 | 8 to 30 | – | O=C1/C(=C/c2ccccc2)C(c2ccccc2)Oc2ccccc21 (centres unmarked) [Compound 5] | – | – | 31.1 ± 1.4 | ~70 | – | 72.1 ± 1.7 | did not affect H2O2 levels
